Reference: patent US20090239939A1, “Combinations for introducing nucleic acids into cells” (priority 1999, published 2009)

Assays:
human erythrocytes = assay: Erythrocyte lysis assay; type: cell-based; settings: 37° C., 1 h, citrate pH 5 versus HBS, FIG. 5
Experimental: The assay serves the examination of the ability of peptides to lyse natural membranes in a pH-dependent manner.
The erythrocytes used in this assay were obtained as follows: 10 ml of fresh blood were taken from volunteers and diluted immediately into 10 ml of Alsever's solution (Whaley 1985; Plank et al., 1996). Aliquots of 3 ml each were washed 3 times with the corresponding buffer (40 ml each of citrate or HBS; after addition of buffer, shaking, centrifugation at 2500×g and discarding of the supernatant). The concentration of the erythrocytes was determined with an “extinction coefficient” of 2.394×10^−8 ml/cells at 541 nm. For deriving the extinction coefficient, the cell count in an aliquot was determined using a Neubauer chamber followed by measuring the absorbance of this solution at 541 nm upon addition of 1 μl 1% Triton X-100.
Aliquots of INF7 and copolymer-coupled INF7 (P3INF7), respectively, were provided in column 1 of a 96-well plate in 150 μl 10 mM sodium citrate pH 5/150 mM NaCl and in HBS buffer, respectively (usually corresponding to […] peptide). […] Then, the plates were centrifuged at 2500×g, 150 μl each of the supernatant was transferred into a flat bottom 96-well plate and released hemoglobin was determined at 410 nm using an ELISA plate reader. […] 0% lysis was determined from untreated samples in column 12.

complement system = assay: Complement activation assay (CH50)

GLFEAIEGFIENGWEGMIDGWYGC [INF7]
erythrocyte lysis activity (human erythrocytes): strong pH-dependent activity | complement activation when incorporated in a polylysine-DNA complex (complement system; FIG. 4B): this complement activation disappears | complement activation (CH50 as percentage of CH50max) (complement system; substance itself incubated with human serum, FIG. 4): weak activator of complement
